Measured values published in US20060229255A1, “Identification of n-alkylglycine trimers for induction of apoptosis” (priority 2003, published 2006).
Read-outs that look alike come from different tables or passages of the source.

Columns and labels:
Type in all cases: cell-based, human
Bcl-xL = assay: Western blot of Bcl-xL phosphorylation; settings: HT29 cells, 3, 6 and 24 h
Procedure: Western blotting. Floating and adherent cells were harvested and pellets were resuspended in RIPA buffer (50 mM Tris/HCl 7.4, 250 mM NaCl, 0,5% Igepal CA630, 5 mM EDTA, 1 mM PMSF, 10 μg/ml leupeptin, 50 mM NaF, 0.1 mM Na3VO4) or Deoxycholate buffer (10 mM phosphate buffer 7.4, […] NaCl, 0.5% Deoxycholate, 1% Igepal, 0.1% SDS, 1 mM PMSF). Protein concentration was determined with BCA Protein Assay Kit (Pierce) for RIPA extracts or Bradford assay (BioRad) for Deoxycholate extracts. Total protein (20-30 μg/lane) were separated by SDS-PAGE, transferred to PVDF membranes (Gellman), and probed with antibodies against Bcl-xL (Transduction); Bax (Santa Cruz); JNK (Santa Cruz); phospho-JNK (Cell Signaling); pRb (Pharmingen); pRb-phospho Ser780 (Cell Signalling); p130 (Santa Cruz); p107 (Santa Cruz); Cdk2 (Santa Cruz); p27^Kip1 (Santa Cruz); p21^Cip1 (Santa Cruz); actin (Sigma); or tubulin (ICN) and developed with ECL system (AmershamPharmacia biotech)
FIG. 6. (A) JNK is activated after N13-13-10C treatment. HT29 cells were treated for 1, 3, 6 and 24 h with N13-13-10C (35 μM), harvested and immunoblotted to assess activation of SAP/JNK MAP kinase. Western blot was first probed with the JNK-phosphor specific antibody, was stripped and reprobed with the pan-JNK antibody and actin to normalize total protein level. […]

T98 g cells = assay: Cell cycle DNA analysis in synchronized cells; settings: for Cells retained in G1: 19 h after serum re-addition, 100 μM
Procedure: Experimentally this finding was substantiated analysing the compounds in a cellular model with synchronized cells. T98 g cells were arrested in G1 phase (82%) by serum starvation in MCDB 105 medium after 72 h. Upon 10% serum re-addition, cells were allowed to re-enter into the cell cycle. More than 50% of the cells were in the S-phase, and only 20% remained in G1 after 19 h of FCS introduction. Addition of N10-13-10C or N13-13-10C to the cultures at the moment of serum addition restrained S-phase entry (FIG. 7. A). Around 40% of the cells were retained in G1. In conclusions both N10-13-10C and N13-13-10C were able to induce a G1 arrest either in asynchronous or in synchronized cell cultures, as determined by cell cycle DNA analysis. In comparison, Olomucine which is a cdk2 inhibitor, retained 80% of the cells in G1. The topoisomerase II inhibitor etoposide treated cells were arrested in S phase of the cell cycle (85% of the cell population).
DNA analysis. Floating and adherent cells treated with the compounds were collected by trypsinization and washed twice with PBS. The cells were permeabilized overnight at −20° C. with ice-cold ethanol 70%. The cells were washed in PBS, adjusted at 0.5×10^6 cells/ml and incubated with 20 μg/ml Propidium Iodide and 2 μl/ml RNase DNase-free for 30 min at 30° C. Cells were maintained overnight at 4° C. and then analysed by flow cytometry. Flow cytometric experiments were carried out using an Epics XL flow cytometer (Coulter Corporation, Hialeah, Fla.). The instrumet was set up with the standard configuration: excitation of the sample was done using an standard 488 nm air-cooled argon-ion laser at 15 mW power. Forward scatter (FSC), side scatter (SSC) and red (620 nm) fluorescence for PI were adquired. Optical alignement was based on optimized signal from […] fluorescent beads (Immunocheck, Epics Division). Time was used as a control of the stability of the instrument. Red fluorescence was projected on a 1024 monoparametrical histogram. Aggregates were excluded gating single cells by their area vs. peak fluorescence signal. DNA analysis (Ploidy analysis) on single fluorescence histograms was done using Multicycle software (Phoenix Flow Systems, San Diego, Calif.).
(§1) FIG. 7. […] (A) T98 g cells were synchronized and reinitiated for 19 h with FCS alone or in combination with N10-13-10C (100 μM), N13-13-10C (100 μM), Olomucine (100 μM), etoposide (5 μM) or Taxol (30 nM). Cell cycle profile was assessed by propidium iodide DNA staining and analyzed by flow cytometry. The fraction of cells with G1, S, G2/M DNA content are shown as % of total cell population. (B. and C.) Synchronized T98 g cells were reinitiated with FCS alone or in combination with serial dilutions of N4-13-10C, N5-13-10C, N10-13-10C, N13-13-10C, Olomucine or etoposide for 19 h and labeled with BrdU during the last 2 h. BrdU incorporation was assessed by ELISA using anti-BrdU antibodies. An arbitrary value of 100% was assigned to the densiometric rate of DNA synthesis by untreated cultures and all other values are depicted relative to that reference. The values are means of three (n=3) replicates.

T98g glioblastoma cells = assay: BrdU incorporation assay (DNA synthesis); settings: synchronized T98 g, 17 h + 2 h BrdU, read-out: IC50 BrdU incorporation (DNA synthesis inhibition)
Procedure: To confirm the G1 arrest of the cell cycle, we analyzed the DNA synthesis by an BrdU incorporation assay. Serial dilutions of the compounds N4-13-10C, N5-13-10C, N10-13-10C, N13-13-10C, etoposide or olomucine were assayed on synchronized T98 g cells as described in FIG. 7. A. Arrested cells were induced to cell cycle re-entry by re-addition of serum alone or with test compounds for 17 h, followed by 2 h in combination with 10 μM BrdU.
BrdU assay. T98g glioblastoma cells at 5000 cells/well in microtiter plates were arrested in G1-phase for 72 h by serum deprivation in MCDB 105 medium. By serum (10%) readdition, cells were treated with serial dilutions of the compounds for 17 h, and followed in combination 10 μM BrdU for […]. BrdU incorporation, i.e. DNA synthesis, was quantified with Cell Proliferation ELISA system, vs. 2 (AmershamPharmacia biotech) as described by the manufacturer.
as §1

CC(=O)O[C@H]1C(=O)[C@@]2(C)[C@H]([C@H](OC(=O)c3ccccc3)[C@]3(O)C[C@H](OC(=O)[C@H](O)[C@@H](NC(=O)c4ccccc4)c4ccccc4)C(C)=C1C3(C)C)[C@]1(OC(C)=O)CO[C@@H]1C[C@@H]2O [Taxol, reference compound]
Bcl-xL phosphorylation (slower migrating band) (Bcl-xL): phosphorylated bcl-xL | Effect on cell cycle profile (T98 g cells; 19 h of treatment, Taxol 30 nM): does not effect cell cycle profile

COc1cc([C@@H]2c3cc4c(cc3[C@@H](O[C@@H]3O[C@@H]5CO[C@@H](C)O[C@H]5[C@H](O)[C@H]3O)[C@H]3COC(=O)[C@H]23)OCO4)cc(OC)c1O [etoposide, reference compound]
Cells arrested in S phase (T98 g cells; 19 h, etoposide 5 μM): 85% | IC50 (T98g glioblastoma cells; Homo sapiens, T98G): 200 µM

Cn1cnc2c(NCc3ccccc3)nc(NCCO)nc21 [Olomucine]
Cells retained in G1 (T98 g cells): 80% | Cells retained in G1 (T98 g cells; listed as olomucine): 82% | IC50 (T98g glioblastoma cells): 50 µM
